Measured values: the NIST ThermoML archive (doi:10.1021/je034087q)

Assay: xn = mol fraction of the nth substance listed

CC(C)=O [acetone] + O=C=O
Settings	mass density [kg/m3]
323.15 K, 11950 kPa, Fluid (supercritical or subcritical phases), x2 = 0.811	807
323.15 K, 12030 kPa, Fluid (supercritical or subcritical phases), x2 = 0.902	754
323.15 K, 12090 kPa, Fluid (supercritical or subcritical phases), x2 = 0.948	711
323.15 K, 12200 kPa, Fluid (supercritical or subcritical phases), x2 = 0.933	731
323.15 K, 12260 kPa, Fluid (supercritical or subcritical phases), x2 = 0.882	779
323.15 K, 12300 kPa, Fluid (supercritical or subcritical phases), x2 = 0.902	757
323.15 K, 12370 kPa, Fluid (supercritical or subcritical phases), x2 = 0.772	818
323.15 K, 12400 kPa, Fluid (supercritical or subcritical phases), x2 = 0.952	710
323.15 K, 12560 kPa, Fluid (supercritical or subcritical phases), x2 = 0.811	813
323.15 K, 12620 kPa, Fluid (supercritical or subcritical phases), x2 = 0.902	762
323.15 K, 12620 kPa, Fluid (supercritical or subcritical phases), x2 = 0.933	740
323.15 K, 12680 kPa, Fluid (supercritical or subcritical phases), x2 = 0.186	788
323.15 K, 12750 kPa, Fluid (supercritical or subcritical phases), x2 = 0.948	727
323.15 K, 12960 kPa, Fluid (supercritical or subcritical phases), x2 = 0.902	769
323.15 K, 12970 kPa, Fluid (supercritical or subcritical phases), x2 = 0.882	785
323.15 K, 13090 kPa, Fluid (supercritical or subcritical phases), x2 = 0.811	818
323.15 K, 13130 kPa, Fluid (supercritical or subcritical phases), x2 = 0.772	823
323.15 K, 13130 kPa, Fluid (supercritical or subcritical phases), x2 = 0.933	748
323.15 K, 13170 kPa, Fluid (supercritical or subcritical phases), x2 = 0.952	726
323.15 K, 13190 kPa, Fluid (supercritical or subcritical phases), x2 = 0.576	829
323.15 K, 13240 kPa, Fluid (supercritical or subcritical phases), x2 = 0.902	771
323.15 K, 13450 kPa, Fluid (supercritical or subcritical phases), x2 = 0.902	775
323.15 K, 13560 kPa, Fluid (supercritical or subcritical phases), x2 = 0.383	813
323.15 K, 13560 kPa, Fluid (supercritical or subcritical phases), x2 = 0.882	791
323.15 K, 13610 kPa, Fluid (supercritical or subcritical phases), x2 = 0.811	821
323.15 K, 13640 kPa, Fluid (supercritical or subcritical phases), x2 = 0.948	744
323.15 K, 13700 kPa, Fluid (supercritical or subcritical phases), x2 = 0.933	758
323.15 K, 13770 kPa, Fluid (supercritical or subcritical phases), x2 = 0.902	776
323.15 K, 13790 kPa, Fluid (supercritical or subcritical phases), x2 = 0.772	827
323.15 K, 14080 kPa, Fluid (supercritical or subcritical phases), x2 = 0.186	789
323.15 K, 14080 kPa, Fluid (supercritical or subcritical phases), x2 = 0.952	744
323.15 K, 14100 kPa, Fluid (supercritical or subcritical phases), x2 = 0.902	781
323.15 K, 14290 kPa, Fluid (supercritical or subcritical phases), x2 = 0.933	767
323.15 K, 14430 kPa, Fluid (supercritical or subcritical phases), x2 = 0.902	785
323.15 K, 14460 kPa, Fluid (supercritical or subcritical phases), x2 = 0.811	826
323.15 K, 14550 kPa, Fluid (supercritical or subcritical phases), x2 = 0.772	831
323.15 K, 14550 kPa, Fluid (supercritical or subcritical phases), x2 = 0.882	800
323.15 K, 14590 kPa, Fluid (supercritical or subcritical phases), x2 = 0.952	751
323.15 K, 14730 kPa, Fluid (supercritical or subcritical phases), x2 = 0.948	762
323.15 K, 14780 kPa, Fluid (supercritical or subcritical phases), x2 = 0.902	789
323.15 K, 14810 kPa, Fluid (supercritical or subcritical phases), x2 = 0.383	817
323.15 K, 14920 kPa, Fluid (supercritical or subcritical phases), x2 = 0.933	777
323.15 K, 14950 kPa, Fluid (supercritical or subcritical phases), x2 = 0.186	791
323.15 K, 15040 kPa, Fluid (supercritical or subcritical phases), x2 = 0.576	834
323.15 K, 15140 kPa, Fluid (supercritical or subcritical phases), x2 = 0.902	792
323.15 K, Liquid, Other PVT measurement, x2 = 0.186	760
323.15 K, Liquid, Other PVT measurement, x2 = 0.383	787
323.15 K, Liquid, Other PVT measurement, x2 = 0.576	795
323.15 K, Liquid, Other PVT measurement, x2 = 0.772	779
323.15 K, Liquid, Other PVT measurement, x2 = 0.811	758
323.15 K, Liquid, Other PVT measurement, x2 = 0.882	701
323.15 K, Liquid, Other PVT measurement, x2 = 0.902	672
323.15 K, Liquid, Other PVT measurement, x2 = 0.933	584
326.65 K, 9160 kPa, Fluid (supercritical or subcritical phases), x2 = 0.933	528
326.65 K, 9180 kPa, Fluid (supercritical or subcritical phases), x2 = 0.933	531
